Patent US7888285B2, “2,4,6-phenyl substituted cyclic ketoenols” (Bayer CropScience AG, priority 2003, dated 2011)

Experiments:
Assay type in all cases: in vivo
cereals [1] = assay: Container experiments with cereals outside the greenhouse, herbicide:mefenpyr 1:2 tank mix; settings: no safener
Experimental: (§1) Seeds of monocotyledonous and dicotyledonous weed and crop plants are placed in sandy loam in wood fibre pots or in plastic pots, covered with soil and grown in the greenhouse or, during the vegetation period, in the open outside the greenhouse, under good growth conditions. 2 to 3 weeks after sowing, the test plants are treated in the one- to three-leaf stage. The test compounds, which are formulated as wettable powder (WP) or as a fluid (EC), are sprayed onto the plants and the soil surface at various dosage rates with a water application rate of 300 l/ha (converted), with added wetter (0.2 to 0.3%). 3 to 4 weeks after the treatment of the test plants, the effect of the preparations is scored visually in comparison with untreated controls (herbicidal activity in per cent (%): 100% activity=plants have died, 0% activity=like control plants).
(§2) If it is additionally desired to test whether safeners are capable of improving the plant tolerance of test substances with regard to the crop plants, the following options for applying the safeners are used: • Prior to application of the test substances, the crop plants are sprayed with safener at a particular application rate per hectare (usually 1 day prior to application of the test substances). • The safener is applied together with the test substance in the form of a tank mix (the amount of safener being indicated in g/ha or as a safener:herbicide ratio).
(§3) The activity of the safener substance can be assessed in comparison with untreated control plants by comparing the effect of test substances on crop plants which have been treated without and with safener.
Container Experiments with Cereals Outside the Greenhouse Herbicide: mefenpyr 1:2 tank mix

sugar beet [2] = assay: Post-emergence test; settings: greenhouse, 250 g a.i./ha, scored after three weeks
Experimental: (§4) To prepare a suitable active compound preparation, 1 part by weight of active compound is mixed with the stated amount of solvent, the stated amount of emulsifier is added, and the concentrate is diluted with water to the desired concentration.
(§5) Test plants with a height of 5-15 cm are sprayed with the active compound preparation in such a way that the amounts of active compound desired in each case are applied per unit area. The concentration of the spray mixture is chosen in such a way that the amounts of active compound desired in each case are applied in 1 000 1 of water/ha.
(§6) After three weeks, the degree of damage of the plants is scored in % damage in comparison with the development of the untreated control.
(§7) The figures denote: • 0% =no effect (like untreated control) • 100% =total destruction

Setaria [3] = assay: Post-emergence test; settings: greenhouse, 250 g a.i./ha, scored after three weeks
Experimental: as §4, §5, §6, §7

Amaranthus = assay: Post-emergence test; settings: greenhouse, 250 g a.i./ha, scored after three weeks
Experimental: as §4, §5, §6, §7

Avena fatua [4] = assay: Post-emergence test; settings: greenhouse, 250 g a.i./ha, scored after three weeks
Experimental: as §4, §5, §6, §7

[5] = system: caterpillars of the diamond-back moth (Plutella xylostella); assay: Plutella test; settings: 1000 ppm
Experimental: (§8) To produce a suitable preparation of active compound, 1 part by weight of active compound is mixed with the stated amounts of solvent and emulsifier, and the concentrate is diluted with emulsifier-containing water to the desired concentration.
Cabbage leaves (Brassica oleracea) are treated by being dipped into the preparation of active compound of the desired concentration and are infested with caterpillars of the diamond-back moth (Plutella xylostella) while the leaves are still moist.
After the desired time, the destruction in % is determined. 100% means that all the caterpillars have been killed; 0% means that none of the caterpillars have been killed.

[6] = system: green peach aphid (Myzus persicae); assay: Myzus test; settings: 1000 ppm
Experimental: To prepare a suitable active compound preparation, 1 part by weight of active compound is mixed with the stated amounts of solvent and emulsifier and the concentrate is diluted with emulsifier-containing water to the desired concentration.
Cabbage leaves (Brassica oleracea), which are severely infested with the green peach aphid (Myzus persicae) are treated by immersing them into the active compound preparation of the desired concentration.
After the desired time, the destruction rate is determined in %. 100% means that all of the aphids have been destroyed; 0% means that none of the aphids have been destroyed.

[7] = system: greenhouse red spider mite (Tetranychus urticae); assay: Tetranychus test (OP-resistant/immersion treatment); settings: 1000 ppm
Experimental: as §8
Bean plants (Phaseolus vulgaris) which are severely infested with all stages of the greenhouse red spider mite (Tetranychus urticae) are dipped into a preparation of the active compound of the desired concentration.
After the desired time, the activity in % is determined. 100% means that all the spider mites have been killed; 0% means that none of the spider mites have been killed.

[8] = system: larvae of the mustard beetle (Phaedon cochleariae); assay: Phaedon larvae test; settings: 1000 ppm
Experimental: [table] To produce a suitable preparation of active compound, 1 part by weight of active compound is mixed with the stated amounts of solvent and emulsifier, and the concentrate is diluted with emulsifier-containing water to the desired concentration. Cabbage leaves (Brassica oleracea) are treated by being dipped into the preparation of active compound of the desired concentration and are infested with the larvae of the mustard beetle (Phaedon cochleariae) while the leaves are still moist.

[9] = system: green rice leafhopper (Nephotettix cincticeps); assay: Nephotettix test; settings: 1000 ppm
Experimental: To produce a suitable preparation of active compound, 1 part
by weight of active compound is mixed with the stated amounts of solvent and emulsifier, and the concentrate is diluted with emulsifier-containing water to the desired concentration.
Rice seedlings (Oryza sativa) are treated by being dipped into the preparation of active compound of the desired concentration and are infested with the green rice leafhopper (Nephotettix cincticeps) while the leaves are still moist.
After the desired time, the destruction in % is determined. 100% means that all the leafhoppers have been killed; 0% means that none of the leafhoppers have been killed.

Alopecurus [10] = assay: Pre-emergence test; settings: greenhouse, 250 g a.i./ha, scored after three weeks
Experimental: (§9) [table] To prepare a suitable active compound preparation, 1 part by weight of active compound is mixed with the stated amount of solvent, the stated amount of emulsifier is added, and the concentrate is diluted with water to the desired concentration. Seeds of the test plant are sown in normal soil. After approximately 24 hours, the soil is sprayed with the active compound preparation in such a way that the amounts of active compound desired in each case are applied per unit area. The concentration of the spray mixture is chosen in such a way that the amounts of active compound desired in each case are applied in 1 000 1 of water/ha. After three weeks, the degree of damage of the plants is scored in % damage in comparison with the development of the untreated control.

sugar beet [11] = assay: Pre-emergence test; settings: greenhouse, 250 g a.i./ha, scored after three weeks
Experimental: as §9

Setaria [12] = assay: Pre-emergence test; settings: greenhouse, 250 g a.i./ha, scored after three weeks
Experimental: as §9

Avena fatua [13] = assay: Pre-emergence test; settings: greenhouse, 250 g a.i./ha, scored after three weeks
Experimental: as §9

Alopecurus [14] = assay: Post-emergence test; settings: greenhouse, 250 g a.i./ha, scored after three weeks
Experimental: as §4, §5, §6, §7

Echinochloa [15] = assay: Post-emergence test; settings: greenhouse, 250 g a.i./ha, scored after three weeks
Experimental: as §4, §5, §6, §7

Sinapis = assay: Post-emergence test; settings: greenhouse, 250 g a.i./ha, scored after three weeks
Experimental: as §4, §5, §6, §7

Echinochloa [16] = assay: Pre-emergence test; settings: greenhouse, 250 g a.i./ha, scored after three weeks
Experimental: as §9

cereals [17] = assay: Greenhouse experiment with cereals with 100 g a.i./ha mefenpyr, post-emergence, evaluation 21 days after application; settings: 50 g a.i./ha, no safener
Experimental: as §1, with “plants). […]” for “plants).”
(§10) The activity of the safener substance can be assessed in comparison with untreated control plants by comparing the effect of test substances on crop plants which have been treated without and with safener. […]

Spring wheat = assay: Post-emergence crop plant tolerance, greenhouse experiments with safener pretreatment (mefenpyr)
Experimental: (§11) Post-Emergence Crop Plant Tolerance
as §1, §2, §3
(§12) Results of Greenhouse Experiments With Safener/Pretreatment (Safener Mefenpyr (100 g a.i./ha), One Day Prior to Post-Emergence Treatment With the Herbicide)

Spring barley = assay: as above
Experimental: as §11, §1, §2, §3, §12

cereals [18] = assay: Container experiments with cereals outside the greenhouse, herbicide + mefenpyr 50 g a.i./ha; settings: 100 g a.i./ha, no safener
Experimental: as §1, with “plants). […]” for “plants).”
as §10

[19] = application rate 25 g a.i./ha, without safener
[20] = application rate 50 g a.i./ha, without safener
[21] = application rate 100 g a.i./ha, without safener
[22] = 50 g a.i./ha herbicide, no safener
[23] = 100 g a.i./ha herbicide, no safener

Compound: CCc1cc(Cl)cc(OC)c1C1=C(OC(=O)C(C)(C)C)C2(CCC(C)CC2)NC1=O (single isomer, unassigned) [Example I-1-b-4]
- Spring barley observed (%) (cereals [1]; 50 g a.i./ha): 60%

Compound: COc1cc(Cl)cc(C)c1C1=C(O)C2(CCOCC2)NC1=O [Example I-1-a-2]
- degree of damage, sugar beet (sugar beet [2]): 0%
- degree of damage, Setaria (Setaria [3]): 100%
- degree of damage, Amaranthus (Amaranthus): 90%
- degree of damage, Avena fatua (Avena fatua [4]): 100%
- Destruction in % after 7 d [5]: 100%
- Destruction in % after 6 d [6]: 100%
- Destruction in % after 7 d [7]: 95%
- Destruction in % after 7 d [8]: 100%
- Destruction in % after 6 d [9]: 100%
- degree of damage, Alopecurus (Alopecurus [10]): 100%
- degree of damage, sugar beet (sugar beet [11]): 0%
- degree of damage, Setaria (Setaria [12]): 80%
- degree of damage, Avena fatua (Avena fatua [13]): 80%

Compound: CCc1cc(Cl)cc(OC)c1C1=C(O)C(C)(C)NC1=O [Example I-1-a-5]
- degree of damage, Alopecurus (Alopecurus [14]): 100%
- degree of damage, Setaria (Setaria [3]): 100%
- degree of damage, Echinochloa (Echinochloa [15]): 100%
- degree of damage, Avena fatua (Avena fatua [4]): 100%
- degree of damage, Sinapis (Sinapis): 80%
- degree of damage, Alopecurus (Alopecurus [10]): 90%
- degree of damage, Setaria (Setaria [12]): 100%
- degree of damage, Echinochloa (Echinochloa [16]): 100%
- degree of damage, Avena fatua (Avena fatua [13]): 100%

Compound: CCc1cc(Cl)cc(OC)c1C1=C(O)C2(CCCCC2)NC1=O [Example I-1-a-6]
- degree of damage, Alopecurus (Alopecurus [14]): 90%
- degree of damage, Echinochloa (Echinochloa [15]): 100%
- degree of damage, Avena fatua (Avena fatua [4]): 100%
- degree of damage, Sinapis (Sinapis): 80%
- Destruction in % after 7 d [8]: 90%
- Winter barley (%) (cereals [17]; winter barley): 20%
- Winter wheat (%) (cereals [17]; winter wheat): 10%

Compound: CCc1cc(Cl)cc(OC)c1C1=C(O)C2(CCCCC2)OC1=O [Example I-2-a-1]
- Spring wheat observed (%) (Spring wheat; [19]): 20%
- Spring wheat observed (%) (Spring wheat; [20]): 20%
- Spring wheat observed (%) (Spring wheat; [21]): 30%
- Spring barley observed (%) (Spring barley; [19]): 10%
- Spring barley observed (%) (Spring barley; [20]): 15%
- Spring barley observed (%) (Spring barley; [21]): 20%

Compound: CCc1cc(Cl)cc(OC)c1C1=C(OC(=O)C(C)(C)C)C2(CCCCC2)OC1=O [Example I-2-b-1]
- Spring wheat observed (%) (Spring wheat; 25 g a.i./ha herbicide, no safener): 20%
- Spring wheat observed (%) (Spring wheat; [22]): 40%
- Spring wheat observed (%) (Spring wheat; [23]): 60%
- Spring barley observed (%) (Spring barley; [22]): 10%
- Spring barley observed (%) (Spring barley; [23]): 20%
- Spring barley observed (%) (cereals [1]; 100 g a.i./ha): 20%
- Spring wheat observed (%) (cereals [1]; 100 g a.i./ha): 30%

Compound: CCOC(=O)OC1=C(c2c(CC)cc(Cl)cc2OC)C(=O)OC12CCCCC2 [Example I-2-c-1]
- Spring wheat observed (%) (Spring wheat; [22]): 20%
- Spring wheat observed (%) (Spring wheat; [23]): 30%
- Spring barley observed (%) (cereals [1]; 100 g a.i./ha): 15%
- Spring wheat observed (%) (cereals [1]; 100 g a.i./ha): 40%
- Spring barley observed (%) (cereals [18]; spring barley): 50%
- Spring wheat observed (%) (cereals [18]; spring wheat): 65%
